Experimental findings from patent US20230000997A1, “PROCESSES OF PREPARING POLYGLUTAMATED ANTIFOLATES AND USES OF THEIR COMPOSITIONS” (L.E.A.F. HOLDINGS GROUP LLC, priority 2019, published 2023) are described below.

The assay in a line: Applicant's experiments with FITC on liposomes (immunostimulant / detectable marker). Particulars: reagent attached to liposome exterior.

Turning to fluorescein isothiocyanate [FITC], the “function as immunostimulant and detectable marker” value is “serves as both an immunostimulant and a detectable marker”.
